Reference: ChEMBL document CHEMBL1136839, “3,4-Disubstituted isothiazoles: novel potent inhibitors of VEGF receptors 1 and 2” (Bioorg Med Chem Lett, 2009)

How the values were obtained:
[1] = biological target: T1, Vascular endothelial growth factor receptor 2 (Homo sapiens, UniProt P35968); assay: Inhibition of VEGFR2 at IC90 concentration by ATP based competition assay
[2] = biological target: Serine/threonine-protein kinase PLK1 (Homo sapiens) (UniProt P53350); assay: Inhibition of Plk1 at 10 uM by HTRF assay
[3] = biological target: T1, Vascular endothelial growth factor receptor 2; assay: Inhibition of VEGFR2 assessed as blockade of pGAT-biotin phosphorylation in presence of 2 uM ATP by HTRF assay
[4] = biological target: Vascular endothelial growth factor receptor 1 (Homo sapiens, UniProt P17948); assay: Inhibition of VEGFR1 assessed as blockade of pGAT-biotin phosphorylation in presence of 2 uM ATP by HTRF assay
[5] = biological target: T1, Vascular endothelial growth factor receptor 2; assay: Inhibition of VEGFR2 expressed in HEK293 cells assessed as inhibition of receptor phosphorylation by ELISA; format: cell-based
[6] = biological target: Insulin-like growth factor 1 receptor (Homo sapiens) (UniProt P08069); assay: Inhibition of IGF1R at 10 uM by HTRF assay
[7] = biological target: Insulin receptor (Homo sapiens) (UniProt P06213); assay: Inhibition of InR at 10 uM by HTRF assay
[8] = biological target: Fibroblast growth factor receptor 1 (Homo sapiens) (UniProt P11362); assay: Inhibition of FGFR1 at 10 uM by HTRF assay
[9] = biological target: Receptor-type tyrosine-protein kinase FLT3 (Homo sapiens) (UniProt P36888); assay: Inhibition of Flt3 at 10 uM by HTRF assay
[10] = biological target: Epidermal growth factor receptor (Homo sapiens) (UniProt P00533); assay: Inhibition of EGFR at 10 uM by HTRF assay
[11] = biological target: Receptor tyrosine-protein kinase erbB-2 (Homo sapiens) (UniProt P04626); assay: Inhibition of ErbB2 at 10 uM by HTRF assay
[12] = biological target: Hepatocyte growth factor receptor (Homo sapiens) (UniProt P08581); assay: Inhibition of cMET at 10 uM by HTRF assay
[13] = biological target: Macrophage-stimulating protein receptor (Homo sapiens) (UniProt Q04912); assay: Inhibition of Ron at 10 uM by HTRF assay
[14] = Inhibition of PKA at 10 uM by HTRF assay
[15] = biological target: Glycogen synthase kinase-3 beta (Homo sapiens) (UniProt P49841); assay: Inhibition of GSK3-beta at 10 uM by HTRF assay
[16] = biological target: Bcr/Abl fusion protein (Homo sapiens) (UniProt P00519+P11274); assay: Inhibition of bcr-Abl at 10 uM by HTRF assay; format: protein assay
[17] = biological target: Cyclin-dependent kinase 1 (Homo sapiens) (UniProt P06493); assay: Inhibition of CDK1 at 10 uM by HTRF assay
[18] = biological target: Cyclin-dependent kinase 2 (Homo sapiens) (UniProt P24941); assay: Inhibition of CDK2 at 10 uM by HTRF assay
[19] = biological target: Proto-oncogene tyrosine-protein kinase Src (Homo sapiens) (UniProt P12931); assay: Inhibition of Src at 10 uM by HTRF assay
[20] = biological target: T2, Aurora kinase A (Homo sapiens) (UniProt O14965); assay: Inhibition of Aurora A at 10 uM by HTRF assay
T2 sequence (whole entry): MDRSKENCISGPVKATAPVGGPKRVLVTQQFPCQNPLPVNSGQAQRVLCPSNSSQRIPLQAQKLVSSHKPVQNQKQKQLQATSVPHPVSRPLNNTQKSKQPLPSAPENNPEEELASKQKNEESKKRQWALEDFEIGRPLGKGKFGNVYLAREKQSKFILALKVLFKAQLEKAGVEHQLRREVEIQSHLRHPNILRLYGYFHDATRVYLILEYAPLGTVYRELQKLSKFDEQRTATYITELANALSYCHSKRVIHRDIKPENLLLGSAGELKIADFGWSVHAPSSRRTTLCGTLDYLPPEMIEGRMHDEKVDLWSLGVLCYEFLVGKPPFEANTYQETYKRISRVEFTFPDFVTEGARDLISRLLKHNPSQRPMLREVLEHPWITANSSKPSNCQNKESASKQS

[21] = biological target: Aurora kinase B (Homo sapiens) (UniProt Q96GD4); assay: Inhibition of Aurora B at 10 uM by HTRF assay
[22] = Inhibition of Bcr-Abl T315 mutant at 10 uM by HTRF assay
[23] = Intrinsic permeability across human Caco-2 cells
[24] = biological target: T1, Vascular endothelial growth factor receptor 2; assay: Inhibition of VEGFR2 at IC50 concentration by ATP based competition assay

T1 sequence (P35968 whole entry): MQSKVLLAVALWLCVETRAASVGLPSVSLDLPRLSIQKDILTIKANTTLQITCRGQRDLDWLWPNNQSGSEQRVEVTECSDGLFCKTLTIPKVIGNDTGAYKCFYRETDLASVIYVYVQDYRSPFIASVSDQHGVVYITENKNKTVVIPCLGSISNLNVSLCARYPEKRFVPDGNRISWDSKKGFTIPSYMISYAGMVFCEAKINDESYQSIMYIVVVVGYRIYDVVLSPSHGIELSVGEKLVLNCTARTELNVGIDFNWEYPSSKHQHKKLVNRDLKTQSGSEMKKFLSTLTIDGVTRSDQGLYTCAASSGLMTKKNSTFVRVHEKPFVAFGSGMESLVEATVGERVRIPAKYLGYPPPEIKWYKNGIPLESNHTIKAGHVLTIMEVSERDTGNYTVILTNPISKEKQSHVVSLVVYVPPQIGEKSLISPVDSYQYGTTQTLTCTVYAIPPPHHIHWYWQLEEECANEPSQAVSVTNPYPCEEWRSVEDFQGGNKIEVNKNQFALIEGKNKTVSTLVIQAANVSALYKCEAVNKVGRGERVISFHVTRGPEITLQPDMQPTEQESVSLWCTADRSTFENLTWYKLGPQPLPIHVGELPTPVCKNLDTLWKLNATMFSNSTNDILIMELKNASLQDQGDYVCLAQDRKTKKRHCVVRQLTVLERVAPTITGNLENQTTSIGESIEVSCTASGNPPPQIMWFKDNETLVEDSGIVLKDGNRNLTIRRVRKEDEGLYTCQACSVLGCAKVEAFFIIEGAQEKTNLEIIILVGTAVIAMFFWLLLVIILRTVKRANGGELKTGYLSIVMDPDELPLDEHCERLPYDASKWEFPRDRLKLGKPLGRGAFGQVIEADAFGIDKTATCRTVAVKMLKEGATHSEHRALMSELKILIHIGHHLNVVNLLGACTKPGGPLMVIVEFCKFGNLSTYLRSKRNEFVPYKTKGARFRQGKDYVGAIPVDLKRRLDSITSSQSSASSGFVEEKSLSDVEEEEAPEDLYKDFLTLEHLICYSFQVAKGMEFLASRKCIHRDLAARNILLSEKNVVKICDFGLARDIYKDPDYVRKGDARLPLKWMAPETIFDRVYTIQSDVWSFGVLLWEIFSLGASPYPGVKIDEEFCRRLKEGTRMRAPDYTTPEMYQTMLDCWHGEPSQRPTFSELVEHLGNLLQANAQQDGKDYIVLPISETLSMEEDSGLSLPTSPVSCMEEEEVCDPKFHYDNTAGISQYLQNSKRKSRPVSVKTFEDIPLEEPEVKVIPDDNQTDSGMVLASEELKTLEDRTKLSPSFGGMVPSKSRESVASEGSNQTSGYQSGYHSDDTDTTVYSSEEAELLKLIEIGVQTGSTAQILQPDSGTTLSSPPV
Chain of Vascular endothelial growth factor receptor 1 (P17948 whole entry): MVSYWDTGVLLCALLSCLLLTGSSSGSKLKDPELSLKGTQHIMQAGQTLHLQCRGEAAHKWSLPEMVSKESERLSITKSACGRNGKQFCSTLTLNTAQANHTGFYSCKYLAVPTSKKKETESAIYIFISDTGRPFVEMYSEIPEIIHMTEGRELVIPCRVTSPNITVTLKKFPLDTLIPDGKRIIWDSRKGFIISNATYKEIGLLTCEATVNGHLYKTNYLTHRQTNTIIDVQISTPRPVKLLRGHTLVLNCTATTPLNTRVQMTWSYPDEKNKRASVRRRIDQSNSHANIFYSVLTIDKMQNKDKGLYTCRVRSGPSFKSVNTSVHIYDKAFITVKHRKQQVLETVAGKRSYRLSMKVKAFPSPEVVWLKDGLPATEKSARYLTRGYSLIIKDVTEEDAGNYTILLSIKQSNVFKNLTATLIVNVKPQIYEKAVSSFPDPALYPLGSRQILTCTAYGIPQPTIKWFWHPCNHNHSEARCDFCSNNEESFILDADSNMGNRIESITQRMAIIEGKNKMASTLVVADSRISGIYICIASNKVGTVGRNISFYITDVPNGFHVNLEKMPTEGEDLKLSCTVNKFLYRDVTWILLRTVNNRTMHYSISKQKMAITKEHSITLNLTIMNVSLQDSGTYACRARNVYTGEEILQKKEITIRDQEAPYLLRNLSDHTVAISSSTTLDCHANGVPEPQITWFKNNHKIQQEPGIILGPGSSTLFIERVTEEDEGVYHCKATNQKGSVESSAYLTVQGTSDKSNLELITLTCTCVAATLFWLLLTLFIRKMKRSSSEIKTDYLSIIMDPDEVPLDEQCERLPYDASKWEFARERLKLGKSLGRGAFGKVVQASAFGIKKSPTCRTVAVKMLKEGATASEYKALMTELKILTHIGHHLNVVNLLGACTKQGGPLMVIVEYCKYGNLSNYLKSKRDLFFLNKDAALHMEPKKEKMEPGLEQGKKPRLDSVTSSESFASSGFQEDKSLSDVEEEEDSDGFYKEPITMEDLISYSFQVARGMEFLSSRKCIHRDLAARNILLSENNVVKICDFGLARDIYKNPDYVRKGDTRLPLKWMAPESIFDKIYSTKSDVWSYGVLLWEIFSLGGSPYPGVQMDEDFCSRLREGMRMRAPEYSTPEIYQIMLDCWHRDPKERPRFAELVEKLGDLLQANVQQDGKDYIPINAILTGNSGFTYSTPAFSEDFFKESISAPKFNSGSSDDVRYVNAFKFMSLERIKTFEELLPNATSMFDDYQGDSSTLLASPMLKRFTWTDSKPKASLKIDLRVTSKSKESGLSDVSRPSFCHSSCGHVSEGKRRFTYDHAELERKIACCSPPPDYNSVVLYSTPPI
Chain of Serine/threonine-protein kinase PLK1 (Homo sapiens) (P53350 whole entry): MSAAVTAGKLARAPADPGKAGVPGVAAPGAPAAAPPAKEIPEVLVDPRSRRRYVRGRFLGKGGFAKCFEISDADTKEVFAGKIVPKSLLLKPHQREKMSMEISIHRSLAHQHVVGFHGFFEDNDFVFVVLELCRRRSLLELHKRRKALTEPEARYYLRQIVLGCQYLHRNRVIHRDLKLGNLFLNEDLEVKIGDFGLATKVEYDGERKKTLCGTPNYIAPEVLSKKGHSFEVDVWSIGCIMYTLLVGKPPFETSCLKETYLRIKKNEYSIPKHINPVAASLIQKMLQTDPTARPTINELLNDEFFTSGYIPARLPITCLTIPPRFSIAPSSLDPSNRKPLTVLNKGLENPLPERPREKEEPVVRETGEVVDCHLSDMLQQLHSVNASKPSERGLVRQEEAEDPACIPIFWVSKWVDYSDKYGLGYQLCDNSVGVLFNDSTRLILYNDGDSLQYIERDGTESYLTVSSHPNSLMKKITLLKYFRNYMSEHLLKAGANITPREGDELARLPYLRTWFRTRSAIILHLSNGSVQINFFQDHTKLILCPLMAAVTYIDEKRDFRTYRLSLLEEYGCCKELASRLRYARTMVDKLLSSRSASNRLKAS
Chain of Aurora kinase B (Homo sapiens) (Q96GD4 whole entry): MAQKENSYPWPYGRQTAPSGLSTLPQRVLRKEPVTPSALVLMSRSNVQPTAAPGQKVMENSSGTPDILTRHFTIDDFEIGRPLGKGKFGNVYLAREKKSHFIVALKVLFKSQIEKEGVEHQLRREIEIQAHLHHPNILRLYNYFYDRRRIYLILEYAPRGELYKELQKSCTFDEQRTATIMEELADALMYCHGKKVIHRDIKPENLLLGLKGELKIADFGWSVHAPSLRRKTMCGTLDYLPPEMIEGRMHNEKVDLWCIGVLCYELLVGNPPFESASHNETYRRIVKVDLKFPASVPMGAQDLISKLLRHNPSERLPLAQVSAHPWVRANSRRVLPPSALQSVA
Chain of Epidermal growth factor receptor (Homo sapiens) (P00533 whole entry): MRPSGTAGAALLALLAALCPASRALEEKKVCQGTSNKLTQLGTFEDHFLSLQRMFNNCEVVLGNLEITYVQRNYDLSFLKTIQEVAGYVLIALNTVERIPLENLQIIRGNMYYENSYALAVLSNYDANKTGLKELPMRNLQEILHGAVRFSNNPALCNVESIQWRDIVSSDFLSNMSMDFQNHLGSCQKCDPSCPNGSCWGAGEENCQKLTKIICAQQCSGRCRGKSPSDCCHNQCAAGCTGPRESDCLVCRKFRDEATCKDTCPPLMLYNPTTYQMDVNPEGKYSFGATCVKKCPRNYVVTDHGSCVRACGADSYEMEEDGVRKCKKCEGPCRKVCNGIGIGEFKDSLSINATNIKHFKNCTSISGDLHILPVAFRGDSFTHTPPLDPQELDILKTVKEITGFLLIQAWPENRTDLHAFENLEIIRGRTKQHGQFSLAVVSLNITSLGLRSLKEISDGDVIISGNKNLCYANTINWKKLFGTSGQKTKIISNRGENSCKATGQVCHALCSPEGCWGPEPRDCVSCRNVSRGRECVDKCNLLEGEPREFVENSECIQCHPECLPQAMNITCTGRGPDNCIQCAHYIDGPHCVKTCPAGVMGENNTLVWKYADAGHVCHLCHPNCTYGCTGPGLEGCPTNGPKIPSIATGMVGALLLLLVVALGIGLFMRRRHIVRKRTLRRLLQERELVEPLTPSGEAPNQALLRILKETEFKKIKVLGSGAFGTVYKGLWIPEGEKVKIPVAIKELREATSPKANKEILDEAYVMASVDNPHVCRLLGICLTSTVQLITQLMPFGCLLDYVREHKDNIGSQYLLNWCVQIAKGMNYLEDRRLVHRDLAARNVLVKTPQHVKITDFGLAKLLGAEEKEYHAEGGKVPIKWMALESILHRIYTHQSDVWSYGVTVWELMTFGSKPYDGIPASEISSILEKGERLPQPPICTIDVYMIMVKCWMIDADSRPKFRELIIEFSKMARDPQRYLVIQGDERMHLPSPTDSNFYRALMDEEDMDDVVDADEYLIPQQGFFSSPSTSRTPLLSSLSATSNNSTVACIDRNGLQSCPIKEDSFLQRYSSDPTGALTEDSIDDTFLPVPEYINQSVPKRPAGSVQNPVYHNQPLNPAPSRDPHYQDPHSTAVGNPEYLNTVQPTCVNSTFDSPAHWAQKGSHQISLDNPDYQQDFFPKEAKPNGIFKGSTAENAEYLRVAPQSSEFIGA

SMILES | Ki [1] | inhibition [2] | IC50 [3] | IC50 [4] | IC50 [5] | inhibition [6] | inhibition [7] | inhibition [8] | inhibition [9] | inhibition [10] | inhibition [11] | inhibition [12] | inhibition [13] | inhibition [14] | inhibition [15] | inhibition [16] | inhibition [17] | inhibition [18] | inhibition [19] | inhibition [20] | further results
O=C(Nc1cccc(C(F)(F)F)c1)c1nscc1NCc1ccncc1 | 0.13 µM | < 30% | 0.041 µM | 0.17 µM | 0.054 µM | < 30% | < 30% | < 30% | < 30% | < 30% | < 30% | < 30% | < 30% | < 30% | < 30% | < 30% | < 30% | < 30% | < 30% | < 30% | inhibition [21]: < 30%; inhibition [22]: < 30%; Papp [23]: 6.98 ×10⁻⁶ cm/s; Ki [24]: 0.16 µM
O=C(Nc1ccc(Br)cc1)c1nscc1NCc1ccncc1 | 0.07 µM | < 30% | 0.23 µM | 0.26 µM | 1.04 µM | < 30% | < 30% | < 30% | < 30% | < 30% | < 30% | < 30% | < 30% | < 30% | < 30% | < 30% | < 30% | < 30% | < 30% | < 30% | inhibition [21]: < 30%; inhibition [22]: < 30%; Ki [24]: 0.09 µM
